Results reported in US11236069B2, “KIF18A inhibitors” (AMGEN INC., priority 2018, dated 2022).

Molecular target: Recombinant human KIF18A (1-467 His-tagged) protein (Homo sapiens (Human), UniProt Q8NI77)
Test: KIF18A Enzyme Assay: microtubule-stimulated ATPase activity (ADP-Glo)
Details: read-out: KIF18A ATPase IC50; 30 nM KIF18A, 30 μg/mL pig microtubules, ATP at Km 75 μM, ADP-Glo luminescence
Text: KIF18A Enzyme Assay: Microtubule-stimulated ATPase activity assay is used to measure KIF18A enzyme activity after treatment with compound. Compounds were 2-fold serially diluted in DMSO (Sigma Inc) over 22-point concentration range. […] The assay measures ADP formed from the ATPase reaction.

Sequence of Recombinant human KIF18A (1-467 His-tagged) protein (Q8NI77 1-467): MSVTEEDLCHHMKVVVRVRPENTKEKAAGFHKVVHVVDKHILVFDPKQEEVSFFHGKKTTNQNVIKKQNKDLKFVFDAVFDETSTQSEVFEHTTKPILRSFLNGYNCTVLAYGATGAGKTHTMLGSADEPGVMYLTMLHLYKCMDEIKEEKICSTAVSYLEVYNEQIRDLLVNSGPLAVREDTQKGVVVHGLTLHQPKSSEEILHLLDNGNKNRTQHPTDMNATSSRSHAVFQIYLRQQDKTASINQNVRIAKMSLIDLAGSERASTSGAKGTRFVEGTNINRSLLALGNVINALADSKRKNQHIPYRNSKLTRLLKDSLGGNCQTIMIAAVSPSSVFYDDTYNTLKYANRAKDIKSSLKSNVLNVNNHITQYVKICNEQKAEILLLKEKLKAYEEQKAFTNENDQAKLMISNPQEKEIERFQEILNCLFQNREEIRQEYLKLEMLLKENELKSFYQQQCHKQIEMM
Sequence of Recombinant human KIF18A (1-467 His-tagged) protein (P02550 whole entry partner): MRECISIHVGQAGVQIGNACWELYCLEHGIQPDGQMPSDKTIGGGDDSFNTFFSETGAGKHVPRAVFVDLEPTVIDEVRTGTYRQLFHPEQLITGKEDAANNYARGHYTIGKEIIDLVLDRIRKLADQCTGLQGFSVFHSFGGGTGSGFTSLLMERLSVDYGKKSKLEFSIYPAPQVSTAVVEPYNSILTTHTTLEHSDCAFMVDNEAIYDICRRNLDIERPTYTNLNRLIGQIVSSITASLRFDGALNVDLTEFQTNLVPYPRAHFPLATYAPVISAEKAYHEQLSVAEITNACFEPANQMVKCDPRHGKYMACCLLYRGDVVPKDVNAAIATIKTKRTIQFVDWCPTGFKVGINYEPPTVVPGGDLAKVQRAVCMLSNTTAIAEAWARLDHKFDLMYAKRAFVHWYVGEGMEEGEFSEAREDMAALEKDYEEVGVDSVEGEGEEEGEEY
Sequence of Recombinant human KIF18A (1-467 His-tagged) protein (P02554 whole entry partner): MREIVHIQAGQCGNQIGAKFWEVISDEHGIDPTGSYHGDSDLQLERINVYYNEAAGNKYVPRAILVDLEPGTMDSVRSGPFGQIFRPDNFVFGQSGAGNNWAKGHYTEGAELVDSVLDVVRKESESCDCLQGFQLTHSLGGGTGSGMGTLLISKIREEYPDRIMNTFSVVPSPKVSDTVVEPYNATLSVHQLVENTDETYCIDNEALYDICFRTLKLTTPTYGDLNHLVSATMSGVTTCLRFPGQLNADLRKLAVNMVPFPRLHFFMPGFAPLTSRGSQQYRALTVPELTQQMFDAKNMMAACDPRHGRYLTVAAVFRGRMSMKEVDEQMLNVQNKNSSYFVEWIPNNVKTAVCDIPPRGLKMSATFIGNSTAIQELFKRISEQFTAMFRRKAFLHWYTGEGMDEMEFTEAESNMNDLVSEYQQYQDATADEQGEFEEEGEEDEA

Compound	IC50
Cc1cc(NC(=O)c2ccc(S(C)(=O)=O)cc2N2CCC3(CC2)CC3)nc(NC[C@@H](C)O)n1 [Example 1-4, (R)-N-(2-((2-Hydroxypropyl)amino)-6-methylpyrimidin-4-yl)-4-(methylsulfonyl)-2-(6-azaspiro[2.5]octan-6-yl)benzamide]	580 nM
Cc1cc(NC(=O)c2ccc(NS(=O)(=O)C3(C)CC3)cc2N2CCC3(CC2)CC3)nc(N2CCC(F)(F)CC2)n1 [Example 2-8, N-(2-(4,4-Difluoropiperidin-1-yl)-6-methylpyrimidin-4-yl)-4-((1-methylcyclopropan)-1-sulfonamido)-2-(6-azaspiro[2.5]octan-6-yl)benzamide]	713 nM
Cc1cc(NC(=O)c2ccc(NS(=O)(=O)C3COC3)cc2N2CCC3(CC2)CC3)nc(N2CCC(F)(F)CC2)n1 [Example 6-12, N-(2-(4,4-Difluoropiperidin-1-yl)-6-methylpyrimidin-4-yl)-4-(oxetane-3-sulfonamido)-2-(6-azaspiro[2.5]octan-6-yl)benzamide]	40 nM
Cc1cc(NC(=O)c2ccc(NS(=O)(=O)CCO)cc2N2CCC3(CC2)CC3)nc(N2CCC[C@@H](O)C2)n1 [Example 11-54, (R)-4-((2-Hydroxyethyl)sulfonamido)-N-(2-(3-hydroxypiperidin-1-yl)-6-methylpyrimidin-4-yl)-2-(6-azaspiro[2.5]octan-6-yl)benzamide]	74 nM
Cc1cc(NC(=O)c2ccc(NS(=O)(=O)CC3CC3)cc2N2CCC3(CC2)CC3)nc(N2CCC(F)(F)CC2)n1 [Example 6-18, 4-((Cyclopropylmethyl)sulfon-amido)-N-(2-(4,4-difluoropiperidin-1-yl)-6-methylpyrimidin-4-yl)-2-(6-azaspiro[2.5]octan-6-yl)benzamide]	85 nM
Cc1cc(NC(=O)c2ccc(NS(=O)(=O)CCO)cc2N2CCC3(CC2)CC3)nc(O[C@@H]2CCOC2)n1 [Example 11-80, (R)-4-((2-Hydroxyethyl)sulfonamido)-N-(6-methyl-2-((tetrahydrofuran-3-yl)oxy)pyrimidin-4-yl)-2-(6-azaspiro[2.5]octan-6-yl)benzamide]	117 nM
O=C(Nc1ccnc(N2CCC(F)(F)CC2)c1F)c1ccc(NS(=O)(=O)CCO)cc1N1CCC2(CC1)CC2 [Example 11-63, N-(2-(4,4-Difluoropiperidin-1-yl)-3-fluoropyridin-4-yl)-4((2-hydroxyethyl)sulfonamido)-2-(6-azaspiro[2.5]octan-6-yl)benzamide]	22 nM
Cc1cc(NC(=O)c2ccc(NS(=O)(=O)CCO)cc2N2CCC3(CC2)CC3)nc(N2CCC3(CC3)C2)n1 [Example 11-25, 4-((2-Hydroxyethyl)sulfonamido)-N-(6-methyl-2-(5-azaspiro[2.4]heptan-5-yl)pyrimidin-4-yl)-2-(6-azaspiro[2.5]octan-6-yl)benzamide]	17.6 nM
Cc1cc(NC(=O)c2ccc(NS(=O)(=O)C3CCOC3)cc2N2CCC3(CC2)CC3)nc(N2CC(F)(F)C2)n1 (stereo in doubt) [Example 11-71, (R)-N-(2-(3,3-Difluoroazetidin-1-yl)-6-methylpyrimidin-4-yl)-2-(6-azaspiro[2.5]octan-6-yl)-4-((tetrahydrofuran)-3-sulfonamido)benzamide]	42 nM
Cc1cc(NC(=O)c2ccc(NS(=O)(=O)[C@H](C)CO)cc2N2CCC3(CC2)CC3)nc(N2CC(F)(F)C2)n1 (single isomer, unassigned) [Example 11-76]	20 nM
Cc1cc(NC(=O)c2ccc(NS(=O)(=O)CCO)cc2N2CCC3(CC2)CC3)nc(N2CCC3(CC2)CC3)n1 [Example 11-31, 4-((2-Hydroxyethyl)sulfonamido)-N-(6-methyl-2-(6-azaspiro[2.5]octan-6-yl)pyrimidin-4-yl)-2-(6-azaspiro[2.5]octan-6-yl)benzamide]	146 nM
Cc1cc(NC(=O)c2ccc(NS(=O)(=O)CCO)cc2N2CCC3(CC2)CC3)nc(N2CCC3CC32)n1 (stereo not drawn) [Example 11-28, N-(2-(2-Azabicyclo[3.1.0]hexan-2-yl)-6-methylpyrimidin-4-yl)-4-((2-hydroxyethyl)sulfonamido)-2-(6-azaspiro[2.5]octan-6-yl)benzamide]	59 nM
Cc1cc(NC(=O)c2ccc(NS(=O)(=O)CCO)cc2N2CCC3(CC2)CC3)nc(N2CCC23COC3)n1 [Example 11-9, 4-((2-Hydroxyethyl)sulfonamido)-N-(6-methyl-2-(6-oxa-1-azaspiro[3.3]heptan-1-yl)pyrimidin-4-yl)-2-(6-azaspiro[2.5]octan-6-yl)benzamide]	128 nM
Cc1cc(NC(=O)c2ccc(NS(=O)(=O)CCO)cc2N2CCC3(CC2)CC3)nc(OC2CCC2)n1 [Example 11-4, N-(2-Cyclobutoxy-6-methylpyrimidin-4-yl)-4-((2-hydroxyethyl)sulfonamido)-2-(6-azaspiro[2.5]octan-6-yl)benzamide]	18 nM

Continued, values first:

IC50	Compound
89 nM	Cc1cc(NC(=O)c2ccc(NS(=O)(=O)[C@H](CO)CF)cc2N2CCC3(CC2)CC3)nc(N2CCC(F)(F)CC2)n1 [Example 16-1, (R)-N-(2-(4,4-Difluoropiperidin-1-yl)-6-methylpyrimidin-4-yl)-4-((2-fluoro-1-(hydroxymethyl)ethyl)sulfonamido)-2-(6-azaspiro[2.5]octan-6-yl)benzamide]
806 nM	Cc1cc(NC(=O)c2ccc(S(=O)(=O)CC(C)(C)O)cc2N2CCC3(CC2)CC3)nc(N2CCC(F)(F)CC2)n1 [Example 14-4, N-(2-(4,4-Difluoropiperidin-1-yl)-6-methylpyrimidin-4-yl)-4-((2-hydroxy-2-methylpropyl)sulfonyl)-2-(6-azaspiro[2.5]octan-6-yl)benzamide]
78 nM	Cc1cc(NC(=O)c2ccc([S@@](=N)(=O)C3CC3)cc2N2CCC3(CC2)CC3)nc(N2CCO[C@H](C)C2)n1 [Example 19-8, 2-(6-Azaspiro[2.5]octan-6-yl)-4-(R-cyclopropylsulfonimidoyl)-N-(6-methy-2-((2R)-2-methyl-4-moprpholinyl)-4-pyrimidinyl)benzamide]
1880 nM	Cc1cc(NC(=O)c2ccc(S(=O)(=O)C(C)(C)C)cc2N2CCC3(CC2)CC3)nc(N2CCC(F)(F)CC2)n1 [Example 14-6, 4-(tert-Butylsulfonyl)-N-(2-(4,4-difluoropiperidin-1-yl)-6-methylpyrimidin-4-yl)-2-(6-azaspiro[2.5]octan-6-yl)benzamide]
94 nM	Cc1cc(NC(=O)c2ccc(S(=O)(=O)[C@@H]3COC[C@H]3O)cc2N2CCC3(CC2)CC3)nc(N2CCC(F)(F)CC2)n1 [Example 14-7, N-(2-(4,4-Difluoropiperidin-1-yl)-6-methylpyrimidin-4-yl)-4-(((3R,4R)-4-hydroxytetrahydrofuran-3-yl)sulfonyl)-2-(6-azaspiro[2.5]octan-6-yl)benzamide]
133 nM	Cc1cc(NC(=O)c2ccc(S(=O)(=O)NCCO)cc2N2CCC3(CC2)CC3)nc(N2CC(F)(F)C2)n1 [Example 17-5, N-(2-(3,3-Difluoroazetidin-1-yl)-6-methylpyrimidin-4-yl)-4-(N-(2-hydroxyethyl)sulfamoyl)-2-(6-azaspiro[2.5]octan-6-yl)benzamide]
69 nM	Cc1cc(NC(=O)c2ccc(S(=N)(=O)C3CC3)cc2N2CCC3(CC2)CC3)nc(N2CC(F)(F)C2)n1 (stereo not drawn) [Example 19-9, 4-(Cyclopropanesulfonimidoyl)-N-(2-(3,3-difluoroazetidin-1-yl)-6-methylpyrimidin-4-yl)-2-(6-azaspiro[2.5]octan-6-yl)benzamide]
